Data on four compounds can be found in patent publication US5602161A, “Tetrazolylphenyl pivalate derivatives and medicinal composition containing the same as effective component” (Wakamoto Pharmaceutical Co., Ltd., priority 1994, dated 1997).

Where two headings read alike, the source gives them in different places.

Series [1] deals with endotoxin-induced lung disorders. Particulars: The Course of Medical Science, 1992, 160, No. 4, pp. 257-258; cited from earlier work.
Series [2] has as its target T1, human sputum elastase (Homo sapiens, UniProt P08246).
T1 sequence (P08246 30-247 limits assumed): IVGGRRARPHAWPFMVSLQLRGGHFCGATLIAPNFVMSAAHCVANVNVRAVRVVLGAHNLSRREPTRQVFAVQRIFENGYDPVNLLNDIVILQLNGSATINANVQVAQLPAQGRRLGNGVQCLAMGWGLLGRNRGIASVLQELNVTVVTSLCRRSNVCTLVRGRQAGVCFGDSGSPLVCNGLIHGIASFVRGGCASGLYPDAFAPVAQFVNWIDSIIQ
The series is described as follows: Inhibitory effect on elastase (human sputum), spectrophotometric assay with MeOSuc-Ala-Ala-Pro-Val-pNA. It is filed as biochemical. Particulars: S: human sputum elastase; pH 8.0, 37° C.; read-out: IC50.
Procedure: (§2) Namely, it is a spectrophotometric assay using the synthesized substrate, methoxysuccinyl-alanyl-alanyl- prolyl-valyl-p-nitroanilide(MeOSuc-Ala-Ala-Pro-Val-pNA, Cambridge research biochemical Co.) which has high specificity on neutrophil elastase.
(§3) 20 μl of a test compound of various concentrations and 20 μl of enzyme solution (13 unit/ml) were added to 400 μl of 0.1M sodium phosphate buffer (pH 8.0). The mixture was incubated at 37° C. for 5 min, and then 20 μl of the substrate was added to the mixture in a final volume of 460 μl. The reaction was conducted by incubating thus obtained mixture at 37° C. for 20 min. The reaction was stopped by the addition of 300 μl of 20% acetic acid into the reaction mixture, and then p-nitroanilide released was measured by the spectrophotometrically at 405 nm.
(§4) Inhibition percents of the test compounds were calculated by the following equation:
(§5) Inhibition %=[1-(OD 405 nm value of the testing sample-background)/(OD 405 nm value of the control-background)]×100

In series [3] the test system is pancreatic elastase induced acute lung injury in mice. As to the kind of experiment: Inhibitory effect on pancreatic elastase induced acute lung injury in mice. The class given is in vivo, ICR mice. Particulars: oral 10 mg/Kg at 3.5 hr before and 4.5~5.0 hr after P. elastase (5 μg/site); BAL fluid at 20 hrs. The method, then: ICR mice (25~30 g, .male., n=7~8) were used.
The compound to be evaluated was suspended in 0.5% sodium carboxymethylcellulose-saline.
Oral administration of the test compound was given at 10 mg/Kg at 3. 5 hr before an intratacheal instillation of P. elastase (5 μg/site). After sodium pentobarbital anesthetized, sterile saline containing P. elastase was instilled intratracheally via ventral neck in the throat incisions using a 250 μl syringe attached to a 27-gauge needle.
The throat incisions were closed with surgical suture, and test compounds were administered with the same manner as described above at 4.5~5.0hr after an intratracheal instillation of P. elastase.
At 20 hrs after an intratracheal instillation of P. elastase, animalz were euthanized by an i.p. pentobarbital overdose, each animal trachea was reexposed and the ventral nech region was small incised. A 10 cm length of small-diameter (O.D=0.5 mm) polyethylene catheter inserted and held in place using surgical suture. The lung were then lavaged with 500 μl sterile saline using a 1 ml syringe by gently expanding the lung and then withdrawing the saline.
The same operation was repeated 6 times, yielding in a final volume of 3 ml bronchoalveolar lavage (BAL) fluid from each animal.
The test compounds were evaluated as a inhabitory percent of hemorrhage and leukocyte number in the BAL fluid from each animal.
Operation for hemorrhage and leukocyte number assay;
Red blood cells were bursted with adding 50 μl KCN solution (0.33%) per 1 ml BAL fluid. The amount of blood in each BAL fluid sample was calculated from a hemoglobin standard curve.
(§1) BAL fluid was diluted to 100 fold with a balanced electrolyte solution and KCN solution (0.33%) was added to the diluted BAL fluid for lysis of contaminating red blood cells.
Leukocyte number was determined by the average of the three times count using a particle counter.
Inhibitory effects of the test compounds on hemorrhage and leukocyte infiltration were calculated from the following equation: Inhibitory percent=[1-(The average value of test compound
group)/(The average value of the control group)]×100
The control animals were dosed orally with the same amount of vehicle before and after intratracheal instillation of P. elastase, and it were treated with the same manner as the test compound group.

For series [4], the target named is T2, human neutrophil elastase (Homo sapiens, UniProt P08246).
T2 construct: using elastase from human neutrophil or human sputum; from tissue; host or cells: human neutrophil
T2 sequence (P08246 30-247 limits assumed): T1 sequence (P08246 30-247 limits assumed)
The series is described as follows: Inhibitory effect on elastase (human neutrophil), spectrophotometric assay with MeOSuc-Ala-Ala-Pro-Val-pNA. The class given is biochemical. Particulars: N: human neutrophil elastase; pH 8.0, 37° C.; read-out: IC50.
Procedure: as §2, §3, §4, §5

Series [5] deals with endotoxin induced acute lung injury in mice. The series is described as follows: Inhibitory effect on endotoxin induced acute lung injury in mice. It is filed as in vivo, ICR mice. Particulars: Mus musculus, oral 10 mg/Kg at 1.5 hr before and 4.5~5.0 hr after LPS (25 μg/site), BAL fluid at 19~20 hrs. As for the experimental part:
ICR mice (25~30 g, .male., n=7) were used.
The test compounds were suspended at 0.1% in 0.5% sodium carboxymethylcellulose-saline.
Oral administration of the test compounds were given at 10 mg/Kg at 1.5 hr before an intratracheal instillation of LPS (E.coli, 055:B5, Difico, 25 μg/site). After sodium pentobarbital anesthetized, LPS dissolved in sterile saline was instilled intratracheally via a ventral neck in the throat incisionusing with a 250 μl syringe attached to a 27-gauge needle.
The throat incisions were sutured with surgical threads, and PI-compound was administered with the same mannner as described above 4.5~5.0 hr after LPS instillation.
Up 19~20 hrs after LPS instillation, animals were euthanized by an i.p. pentobarbital overdose, each animal trachea was reexposed and the ventral neck region was small incised.
A 10 cm length of small-diameter (O.D=0.5 mm) polyethylene catheter inserted and held in place using surgical suture. The lung was then lavaged with a single 500 μl sterile saline using a 1 ml syringe by gently expanding the lung and then withdrawing the saline. The same operation was repeated 6 times, yielding a final volume of 3 ml bronchoalveolar lavage (BAL) fluid from each animal.
Evaluation of testing compounds were expressed as inhibitory percent of hemorrhage and leukocyte infiltration in the lung of each animals.
Estimation for hemorrhage:
Red blood cells were bursted with adding 50 μl KCN solution (0.33 %) per 1 ml of BAL fluid, and then the amount of blood in each BAL fluid samples were calculated from a hemoglobin standard curve.
Estimation of leukocyte infiltrations:
as §1
Leukocyte number was determined from the average of the three times count using a particle counter.
The inhibitory effect of testing compounds were calculated from thefollowing equation:
Inhibitory percent=[1-(The average value of the test compound group)/(The
average value of the control group)]×100
The control animals were dosed orally with the same amount of the vehicle before and after intratracheal instillation of LPS and were operated with the same manner as the animals tested with the test compounds.

The nature of series [6]: Cytotoxicity test (MTT, three days). It is filed as cell-based. The conditions noted are these: mouse, l1210 cells, read-out: Survival rate; for viability at 72 h, 1 µM: final concentration 1 μM; for viability at 72 h, 5 µM: final concentration 5 μM; for viability at 72 h, 10 µM: final concentration 10 μM. The method, then:
L1210 (lymphocytic leukemia, mouse) cells in a logarithmic growth phase were collected and washed twice with HBSS (Hanks' balanced salt solution). The L1210 cells were resuspended at 5.0×10^4 cells/ml in RPMI 1640 medium containing 10% heat-inactivated fetal bovine serum. The cell suspension was dispensed in 100 μl aliquots into 96 well multi-plate. Each of compounds to be tested was dissolved in dimethylsulfoxide at a concentration of 10 mM. The solutions were stepwise diluted with RPMI 1640 solution containing 10% heat-inactivated fetal bovine serum. Each of the diluted samples was dispensed in an amount of 10 μl well in the 96 well multi-plate containing L1210 cells and incubated for three days at 37° C. in humidified 5% CO2 -air mixture. To each of the wells, 10 μl of MTT (3-(4,5-dimethylthiazol-2-yl)-2,5-diphenyltetrazolium bromide)(5 mg/ml in phosphate buffer free of Ca^2+ and Mg^2+) was added. Cultivation was continued for additional five hours at 37° C. in humidified 5% CO2 -air mixture. To each of the wells, 100 μl of 20% SDS (sodium dodecyl sulfate) in 0.01N HCl was added to solubilize the MTT formazan.
Absorbance was measured at 630 nm as a reference wavelength and 570 nm as a measuring wavelength using Corona Electric MTP22 Microplate Photometer. The measurement was conducted three times for each of the samples to obtain an average value and a standard deviation. Survival rate was calculated by the following equation:
Survival rate (5)=[(absorbance of test sample)/(absobance of […]

The mark [7] stands for this setting: Leukocyte, read-out: Inhibitory percent of leukocyte infiltration.
The mark [8] stands for this setting: read-out: Inhibitory percent of hemorrhage.

As to `CC(C)(C)C(=O)Oc1ccc(S(=O)(=O)Nc2ccccc2C(=O)NCC(=O)O)cc1` [ONO-5046], the “effect of inhibiting endotoxin-induced lung disorders (in words)” value in series [1] is “shows an effect of inhibiting endotoxin-induced lung disorders”.
For orientation: IC50 means the point on the concentration scale where inhibition reaches its midpoint. For `CC(C)c1ccc(Cn2nnc(-c3ccc(OC(=O)C(C)(C)C)cc3)n2)cc1` [Example 19, 4-[2-(4-Isopropylbenzyl)tetrazol-5-yl]phenyl pivalate], the figures for the IC50 in series [2] and in series [4] were 510 nM and 42 nM, respectively. Also, the “Inhibitory percent of hemorrhage” value in series [3] was 76.8%. Also, the “Inhibitory percent of leukocyte infiltration” value in series [3] is recorded as 14.1%. Besides, the inhibition in vivo at 10 mg/kg is 65.6% in series [5] (setting [7]) and 33.8% in series [5] (setting [8]).
For `CN(C)c1ccc(Cn2nnc(-c3ccc(OC(=O)C(C)(C)C)c(N(C)C)c3)n2)cc1` [Example 7, 2-Dimethylamino-4-[2-[4-(dimethylamino)benzyl]tetrazol-5-yl]phenyl pivalate], the IC50 in series [2] came out at 540 nM. For the same compound, in series [3], the “Inhibitory percent of hemorrhage” value is 23.6% and the “Inhibitory percent of leukocyte infiltration” value worked out at 26.1%. Further, in series [5] (setting [7]), the inhibition in vivo at 10 mg/kg turned out to be 82.1%. The inhibition in vivo at 10 mg/kg in series [5] (setting [8]) was 88.5%. Besides, in series [6], the viability at 72 h, 1 µM was determined as 97%; the viability at 72 h, 5 µM came out at 96.1%; the viability at 72 h, 10 µM was 88.3%.
In the case of `CN(C)c1ccc(Cn2nnc(-c3ccc(OC(=O)C(C)(C)C)cc3)n2)cc1` [Example 16, 4-[2-[4-(Dimethylamino)benzyl]tetrazol-5-yl]phenyl pivalate], the half-inhibitory concentration (IC50) in series [2] is 150 nM. Moreover, in series [3], the “Inhibitory percent of hemorrhage” value is 44.0% and the “Inhibitory percent of leukocyte infiltration” value is reported as 49.0%. Besides, in series [4], the IC50 was 30 nM. The inhibition in vivo at 10 mg/kg in series [5] (setting [7]) was 88.2%. Further, the inhibition in vivo at 10 mg/kg in series [5] (setting [8]) is 84.9%. Moreover, in series [6], the viability at 72 h, 1 µM stood at 94.2%; the viability at 72 h, 5 µM came to 103%; the viability at 72 h, 10 µM turned out to be 104%.
